Where two headings read alike, the source gives them in different places.
Tests used:
[1] = test system: potato blight Phytophthora infestans; type: in vivo; conditions: 5 days, controls less than 5%
[2] = test system: barley powdery mildew Erysiphe graminis; experiment: Barley powdery mildew control on barley plants; type: in vivo; conditions: 2000 ppm; soil and leaves; 10 days; controls less than 5%
[3] = test system: Pythium ultimum; experiment: Fungal growth on the surface of soil infected with damping-off disease organism; type: in vivo; conditions: 6 days, 25° C.
Experimental: (§1) A one week old maize meal/sand culture of the damping-off disease organism Pythium ultimum was thoroughly mixed by hand with clean sterile John Innes No. 1 potting compost in the ratio of 3 kg culture to 12 liters of soil. The infected soil was then left for approximately 18 hours before use. Each of the compounds listed below was ground together with a wetting agent, Tween 20 (1% of final volume), until a solution or fine suspension was produced which was then diluted with distilled water to give 160 ml of solution containing 1500, 500, 150 or 50 ppm active ingredient. 15 ml aliquots of this solution were added to 75 g portions of the soil infected with Pythium ultimum which were contained in small plastic cartons, 60 mm diameter×55 mm high. Fifteen cabbage seeds, variety Flower of Spring, were placed in a circular depression in the treated infected soil, recovered, and the whole sealed with a plastic cap. The cartons were then placed in a constant temperature room at 25° C.±1° C. Four replications per treatment were made with one additional treatment where seeds were sown in soil which was chemically treated only, i.e. there was no infection. This latter treatment was included to measure the direct effect of the chemical on the germination of the seed. After six days the cartons were removed from the controlled temperature chamber and assessed for degree of fungal growth on the soil surface and percentage of seedling emergence. The results of both these assessments are expressed in a 0-8 scale as follows:
(§2) One week old maize meal/sand culture of the damping-off disease organism Pythium ultimum was thoroughly mixed by hand with clean sterile John Innes No. 1 potting compost in the ratio of 3 kg culture to 12 liters of soil. This infected soil was then left for approximately 18 hours before use. The compounds listed in the Table below were each ground with the wetting agent Tween 20 (1% of final volume), until a solution or fine suspension was produced, which was then diluted with distilled water to give 160 ml of solution containing 1500 or 500 parts per million (ppm) active ingredient. 15 ml aliquots of this solution were added to 75 g portions of the soil infected with Pythium ultimum which were contained in small plastic cartons, 60 mm diameter×55 mm high.
(§3) Fifteen cabbage seeds, variety Flower of Spring, were placed in a circular depression in the treated infected soil, recovered, and the whole sealed with a plastic cap. The cartons were then placed in a constant temperature room at 25° C.±1° C. Four replications per treatment were made, with one additional treatment where seeds were sown in soil which was chemically treated only, i.e. there was no infection. This latter treatment was included to measure the direct effect of the chemical on the germination of the seed.
(§4) After six days, the cartons were removed from the controlled temperature chamber and assessed for degree of fungal growth on the soil surface and percentage of seedling emergence. The results of both these assessments are expressed in a 0-8 scale as follows:
(§5) N-(2-oxopropyl)-3',4'-dimethyl-methanesulphonanilide was tested at a dose rate of 300 ppm in the test described in Examples 233 and 234. It gave a mycelial control score of 0 and a germination score of 3 whereas the untreated samples gave a score of 0 for both.

[4] = test system: Pythium ultimum; experiment: Cabbage seedling emergence in soil infected with Pythium ultimum; type: in vivo, Pythium ultimum (on cabbage, variety Flower of Spring); conditions: 6 days, 25° C.
Experimental: as §1, §2, §3, §4, §5

[5] = test system: Peas (Pisum sativum); experiment: Soil incorporation (attaclay/sand dust), growth regulatory or herbicidal effects, peas; type: in vivo; conditions: Lathyrus oleraceus, 504 h, soil incorporation 130 ppm, 21 days, 0=no effect, 100=complete kill/suppression, read-out: growth regulatory or herbicidal effect score
Source text: (§6) The compounds listed below were each formulated as an attaclay/sand dust and incorporated into John Innes I potting compost at a rate equivalent to 26 parts per million weight/volume of active ingredient to soil and placed in anodised aluminium pans, 19 cm long×9.5 cm wide×5.0 cm deep. This rate is approximately equivalent to a soil surface application of 11.2 kg active ingredient/hectare cultivated to a depth of 5 cm. Seeds of the species listed below were sown in the treated soil, watered and placed in a controlled environment room (22° C.; 65-85% relative humidity; 14 hours per day artificial illumination at 13,000 lux) for 21 days. The plants were then visually assessed for any growth regulatory or herbicidal effects. All differences from an untreated control were scored on a scale from 0-100, where 0 signifies no effect and 100 signifies complete kill.
(§7) The compounds listed below were tested according to the procedure of Examples 56-60 but at 130 parts per million weight/volume of active ingredient to soil. This rate is approximately equivalent to a soil surface application of 56 kg active ingredient per hectare cultivated to a depth of 5 cm.
(§8) The product of Example 95 was tested according to the procedure of Examples 56-60 but at 130 and 26 parts per million weight/volume. The results were as follows:
(§9) N-(2-oxopropyl)-2'-chloro-6'-methyl-methanesulphonanilide, formulated as an attaclay/sand dust, was incorporated in John Innes I potting compost at a rate equivalent to 130 parts per million weight/volume of active ingredient to soil and placed in anodised aluminium pans, 19 cm long×9.5 cm wide×5.0 cm deep. These rates are approximately equivalent to a soil surface application of 56 kg active ingredient per hectare cultivated to a depth of 5 cm. Seeds of Peas, Mustard, Linseed, Maize, Oats and Ryegrass were sown in the treated soil, watered and placed in a controlled environment room (22° C.; 65-85% relative humidity; 14 hours artificial illumination at 13000 lux) for 21 days.
(§10) The plants were then visually assessed for any growth regulatory or herbicidal effects. All differences from an untreated control were scored on a scale from 0-100, where 0 signifies no effect and 100 signifies complete suppression.

[6] = test system: Mustard (Sinapis alba); experiment: Soil incorporation (attaclay/sand dust), growth regulatory or herbicidal effects, mustard; type: in vivo; conditions: 504 h, soil incorporation 130 ppm, 21 days, 0=no effect, 100=complete kill/suppression, read-out: growth regulatory or herbicidal effect score
Source text: as §6, §7, §8, §9, §10

[7] = test system: Linseed (Linum usitatissimum); experiment: Soil incorporation (attaclay/sand dust), growth regulatory or herbicidal effects, linseed; type: in vivo; conditions: 504 h, soil incorporation 130 ppm, 21 days, 0=no effect, 100=complete kill/suppression, read-out: growth regulatory or herbicidal effect score
Source text: as §6, §7, §8, §9, §10

[8] = test system: Maize (Zea mays); experiment: Soil incorporation (attaclay/sand dust), growth regulatory or herbicidal effects, maize; type: in vivo; conditions: 504 h, soil incorporation 130 ppm, 21 days, 0=no effect, 100=complete kill/suppression, read-out: growth regulatory or herbicidal effect score
Source text: as §6, §7, §8, §9, §10

[9] = test system: Oats (Avena sativa); experiment: Soil incorporation (attaclay/sand dust), growth regulatory or herbicidal effects, oats; type: in vivo; conditions: 504 h, soil incorporation 130 ppm, 21 days, 0=no effect, 100=complete kill/suppression, read-out: growth regulatory or herbicidal effect score
Source text: as §6, §7, §8, §9, §10

[10] = test system: Ryegrass (Lolium perenne); experiment: Soil incorporation (attaclay/sand dust), growth regulatory or herbicidal effects, ryegrass; type: in vivo; conditions: 504 h, soil incorporation 130 ppm, 21 days, 0=no effect, 100=complete kill/suppression, read-out: growth regulatory or herbicidal effect score
Source text: as §6, §7, §8, §9, §10

[11] = test system: potato blight, Phytophthora infestans; type: in vivo; conditions: 2,000 ppm; 5 days; controls less than 5%
[12] = 300 ppm, 0-8 scale (Examples 233, 234, 268)

`CCCS(=O)(=O)N(CC#N)c1ccc(Cl)c(Cl)c1` [Example 132] was tested, and the “% Control, potato blight” value ([1]; 500 ppm) was 59% and the “% Control, potato blight” value ([1]; 2000 ppm) was 76%.

For `CS(=O)(=O)N(CCCC#N)c1ccc(Cl)c(Cl)c1` [Example 147], the “% Control, barley powdery mildew” value [2] was 96%.

For `CCc1ccccc1N(C(C)C(=O)N1CCOCC1)S(C)(=O)=O` (centres unmarked) [Example 41], the “% Control, potato blight” value ([1]; 2000 ppm) was 93%.

In the case of `CC1(CN(c2ccc(Cl)cc2)S(C)(=O)=O)OCCO1` [Example 228, N-[(2-methyl-1,3-dioxolan-2-yl)methyl]-4'-chloro-methanesulphonanilide], the “Mycelial Control Score” value [3, 12] is reported as 8 (>94% inhibition) and the “Germination Score” value [4, 12] is reported as 0 (<20% inhibition).

Molecule `CCS(=O)(=O)N(c1c(C)cccc1C)C(C)C(=O)O` (centres unmarked) [Example 9] has a pest or weed control at 130 µg/mL [5] of 50%, a pest or weed control at 130 µg/mL [6] of 70% and a pest or weed control at 130 µg/mL [7] of 80%. It also gave a plant injury at 130 µg/mL [8] of 30%, a plant injury at 130 µg/mL [9] of 20% and a pest or weed control at 130 µg/mL [10] of 20%. For the same molecule, the “Mycelial Control Score” value ([3]; 30 ppm, 0-8 scale) was 0 (<20% inhibition), the “Mycelial Control Score” value ([3]; 100 ppm, 0-8 scale) was 0 (<20% inhibition) and the “Mycelial Control Score” value ([3]; 300 ppm, 0-8 scale) was 0 (<20% inhibition). For the same molecule, the “Germination Score” value ([4]; 30 ppm, 0-8 scale) was 1 (20-34% inhibition), the “Germination Score” value ([4]; 100 ppm, 0-8 scale) was 5 (65-74% inhibition) and the “Germination Score” value ([4]; 300 ppm, 0-8 scale) was 5 (65-74% inhibition).

With `Cc1cccc(C)c1N(CC1(C)OCCO1)S(C)(=O)=O` [Example 231, N-[(2-methyl-1,3-dioxolan-2-yl)methyl]-2',6'-dimethylmethanesulphonanilide] the “% Control, potato blight” value [11] was 98%.

With `Cc1ccc(N(CCCC#N)S(C)(=O)=O)cc1C` [Example 148] the “% Control, barley powdery mildew” value [2] was 89%.
